From BindingDB's records for doi:10.1016/j.bmcl.2004.01.051 (Pierre and Marie Curie University, 2004)

Tests used:
[1] = molecular target: Cyclopropane-fatty-acyl-phospholipid synthase (Escherichia coli) (UniProt P0A9H7); assay: Inhibition constant against Escherichia coli cyclopropane fatty acid synthase
[2] = molecular target: Cyclopropane-fatty-acyl-phospholipid synthase (Escherichia coli) (UniProt P0A9H7); assay: as above; remark: listed apart in the source

Sequence of Cyclopropane-fatty-acyl-phospholipid synthase (Escherichia coli) (P0A9H7 whole entry, looked up): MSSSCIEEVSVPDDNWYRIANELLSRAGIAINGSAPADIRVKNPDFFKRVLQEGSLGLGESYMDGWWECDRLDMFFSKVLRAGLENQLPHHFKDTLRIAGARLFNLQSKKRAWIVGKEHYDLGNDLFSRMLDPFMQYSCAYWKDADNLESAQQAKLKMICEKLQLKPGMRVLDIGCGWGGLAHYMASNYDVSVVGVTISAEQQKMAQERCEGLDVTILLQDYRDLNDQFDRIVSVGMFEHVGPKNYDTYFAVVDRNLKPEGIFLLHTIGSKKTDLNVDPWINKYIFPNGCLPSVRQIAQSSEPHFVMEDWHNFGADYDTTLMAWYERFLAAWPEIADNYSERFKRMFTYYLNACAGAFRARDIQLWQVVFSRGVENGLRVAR

Compound	Ki [1] [µM]	Ki [2] [µM]
Nc1ncnc2c1ncn2[C@@H]1O[C@H](CSCCC(N)C(=O)O)[C@@H](O)[C@H]1O (stereo partly drawn) [2-Amino-4-[(2S,3S,4R,5R)-5-(6-amino-purin-9-yl)-3,4-dihydroxy-tetrahydro-furan-2-ylmethylsulfanyl]-butyric acid]	30	
C[S+]([O-])C[C@H]1O[C@@H](n2cnc3c(N)ncnc32)[C@H](O)[C@@H]1O (stereo partly drawn) [(2R,3R,4S,5S)-2-(6-Amino-purin-9-yl)-5-methanesulfinylmethyl-tetrahydro-furan-3,4-diol]	500	
CS(=O)(=O)C[C@H]1O[C@@H](n2cnc3c(N)ncnc32)[C@H](O)[C@@H]1O [(2R,3R,4S,5S)-2-(6-Amino-purin-9-yl)-5-methanesulfonylmethyl-tetrahydro-furan-3,4-diol]	220	
Nc1ncnc2c1ncn2[C@@H]1O[C@H](CSCC[C@H](N)C(=O)O)[C@@H](O)[C@H]1O [AdoHcy]	150	
C[S+](C)C[C@H]1O[C@@H](n2cnc3c(N)ncnc32)[C@H](O)[C@@H]1O	2500	
Nc1ncnc2c1ncn2[C@@H]1O[C@H](CS(=O)(=O)CC[C@H](N)C(=O)O)[C@@H](O)[C@H]1O [2-Amino-4-[(2S,3S,4R,5R)-5-(6-amino-purin-9-yl)-3,4-dihydroxy-tetrahydro-furan-2-ylmethanesulfonyl]-butyric acid]	100	
CSC[C@H]1O[C@@H](n2cnc3c(N)ncnc32)[C@H](O)[C@@H]1O [(2R,3R,4S,5S)-2-(6-aminopurin-9-yl)-5-(methylsulfanylmethyl)oxolane-3,4-diol]	1500	
Nc1ncnc2c1ncn2[C@@H]1O[C@H](C[S+]([O-])CC[C@H](N)C(=O)O)[C@@H](O)[C@H]1O (stereo partly drawn) [2-Amino-4-[(2S,3S,4R,5R)-5-(6-amino-purin-9-yl)-3,4-dihydroxy-tetrahydro-furan-2-ylmethanesulfinyl]-butyric acid]	50	30
